Experimental data reported in patent US8952033B2, “4-anilinofuro[2,3-b]quinoline derivatives, their preparation processes, and pharmaceutical compositions comprising the same” (Kaohsiung Medical University, priority 2011, dated 2015).
Converted amounts (≈) assume the structure as drawn. Marks after values point to notes of the source that are not given here.

Columns and labels:
[1] = system: MCF-7 (breast cancer cell); experiment: MTT antiproliferative assay (cell growth %, GI50), MCF-7; format: cell-based
In short: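 Cells exposed to compounds in DMSO or vehicle for 48 hours; MTT (2 mg/mL) added before and after treatment for 2 hours, formazan dissolved in DMSO and OD570 read. GI50 from three determinations, reported as mean±SD.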

[2] = system: RCC 786-O (renal cell carcinoma cell); experiment: Preferential antiproliferative activity, RCC 786-O; format: cell-based
Procedure: (§1) Determination of GI50 of compounds 13a, 13c, 14a, 14c, 15a, 16a was conducted substantially according to the method as described in the preceding section A entitled “Evaluation of antiproliferative activity”, except that the normal cell line MRC-5 was also utilized, and that camptothecin and daunorubicin were tested instead of compounds 1, 2, 3. The concentration of the respective test compound, which can reduce absorbance by 50% (compared with DMSO), is regarded as GI50, and can be determined via dose-response curves. Determination of GI50 was conducted thrice for each test compound. GI50 is expressed as mean±SD.
(§2) SI stands for selectivity index and was calculated by substituting GI50 into the following formula: D=E/F (2) where • D=SI • E=GI50 of the respective test compound for cells of the normal cell line • F=GI50 of the respective test compound for cells of the cancer cell line The experimental results are summarized in Table 4. […]

[3] = system: PC-3 (human prostate cancer cell); experiment: Preferential antiproliferative activity, PC-3; format: cell-based
Procedure: as §1, §2

[4] = system: CE81T (human esophageal carcinoma cell); experiment: Preferential antiproliferative activity, CE81T; format: cell-based
Procedure: as §1, §2

[5] = Determination of solubility in water; format: physicochemical
Procedure: Determination of solubility in water was conducted substantially according to the method as described in Vougogiannopoulou, K. et al. (2008), J. Med. Chem., 51:6421-6431. An excess amount of the respective test compound was added into water, followed by sonication for 5 minutes. The resultant mixture was stirred at ambient temperature (25±0.1° C.) overnight. Centrifugation at 4000 rpm and 25° C. was conducted for 5 minutes. Absorbance of the sample of the respective test compound was measured at 315-420 nm using a UV-VIS spectrophotometer (JASCO UV-Visible V570). For each test compound, a standard curve was generated by plotting concentrations of standard solutions and the corresponding absorbances. The absorbance of the sample of each test compound was then converted to solubility in water (μg/mL) using the corresponding standard curve.

[6] = Single-dose pharmacokinetic analysis in CD-1 mice; format: in vivo
Procedure: CD-1 mice were divided into two groups. The first group of mice (n=9) were used to assess the singe-dose pharmacokinetics of the test compounds after intravenous administration, and the second group of mice (n=9) were utilized to assess the singe-dose pharmacokinetics of the test compounds after oral administration. All of the mice were fasted from 4 hours before the administration of the test compounds until 4 hours after the administration of the test compounds.
The assessment for singe-dose pharmacokinetics of the test compounds after intravenous administration was performed as follows. The first group of mice were further randomly divided into three subgroups including compound 13a group (n=3), compound 14a group (n=3), and compound 1 group (n=3). Compounds 13a, 14a, 1 (in polyethylene glycol 400/ethanol/water (30/5/65, v/v/v)) were respectively administered to the mice in compound 13a group, compound 14a group, and compound 1 group at a dose of 2 mg/kg via tail vein injection. Blood samples (0.25 mL) were collected from the mice by virtue of cardiac puncture right before the intravenous administration, and at 2 min, 5 min, 15 min, 30 min, 1 hr, 1.5 hr, 2 hr, 4 hr, 6 hr, 9 hr, 24 hr, and 27 hr after the intravenous administration.
The assessment for singe-dose pharmacokinetics of the test compounds after oral administration was conducted as follows. The second group of mice were further randomly divided into three subgroups including compound 13a group (n=3), compound 14a group (n=3), and compound 1 group (n=3). Compounds 13a, 14a, 1 (in 0.5% methylcellulose) were respectively administered to the mice in compound 13a group, compound 14a group, and compound 1 group at a dose of 20 mg/kg via tube feeding. Blood samples (0.25 mL) were collected from the mice by virtue of cardiac puncture right before the oral administration, and at 15 min, 30 min, 1 hr, 1.5 hr, 2 hr, 4 hr, 6 hr, 9 hr, 24 hr, and 27 hr after the oral administration.
Each of the blood samples was placed in a 0.5 mL Microtainer® tube containing anticoagulant EDTA-K2, followed by mixing evenly. Centrifugation at 7000 g and 4° C. was conducted for 5 minutes. Plasma was collected and was mixed uniformly with a proper amount of acetonitrile, followed by centrifugation. The resultant supernatant was acquired, and was injected into a reversed-phase Biosil ODS column so as to determine the concentration of the respective test compound in plasma (i.e., the plasma concentration of the respective test compound) using a LC-MS/MS system (Waters 2795 LC and Micromass Quattro Ultima). The singe-dose pharmacokinetic parameters of the respective test compound were calculated from the obtained concentration of the respective test compound in plasma (i.e., the obtained plasma concentration of the respective compound) at different time points using WinNonlin Standard Program (version 3.1, Pharsight Corp.)

[7] = intravenous administration, 2 mg/kg

SMILES: C/C(=N\OCCN)c1ccc(Nc2c3ccccc3nc3occc23)cc1 [Compound 13a, (E)-1-(4-(furo[2,3-b]quinolin-4-ylamino)phenyl)ethanone O-2-aminoethyl oxime]
- SI MCF-7 ([1]; GI50 MRC-5 / GI50 MCF-7): 4.59
- activity at 4000 µg/mL ([1]; Homo sapiens, MCF7, 4 mg/ml, 48 hours, MTT): 66%
- activity at 20000 µg/mL ([1]; Homo sapiens, MCF7, 20 mg/ml, 48 hours, MTT): -1%
- GI50 ([1]; Homo sapiens, MCF7, mean±SD, read-out: GI50 MCF-7): 9.34 ± 0.92 µM
- GI50 ([2]; Homo sapiens, 786-0, mean±SD): 24 ± 2 µM
- SI RCC 786-O ([2]; versus MRC-5): 1.77
- GI50 ([3]; Homo sapiens, mean±SD): 11.8 ± 0.49 µM
- SI PC-3 ([3]; versus MRC-5): 3.62
- GI50 ([4]; Homo sapiens, CE81T, mean±SD): 16.9 ± 1.88 µM
- SI CE81T ([4]; versus MRC-5): 2.53
- Solubility in water ([5]; 25±0.1° C., stirred overnight, UV-VIS): 63 µg/mL (≈ 175 µM)
- Solubility in water relative to compound 2 ([5]; fold versus compound 2): about six times higher
- AUC(0-inf) [6, 7]: 362.6 ng·h/mL
- CL [6, 7]: 91.9 mL/min/kg
- MRT [6, 7]: 2.5 h
- Vss [6, 7]: 13.5 L/kg
- Vz [6, 7]: 38.8 L/kg
- Cmax ([6]; intravenous administration, 2 mg/kg, extrapolated plasma concentration at 0 hr): 1488.4 ng/mL
- t1/2 ([6]; intravenous administration, 2 mg/kg, from 0.5-1.5 hr (compd. 1) or 9-27 hr (13a, 14a)): 4.9^d hr
- Bioavailability ([6]; oral 20 mg/kg versus intravenous 2 mg/kg): 57.1%
- AUC(0-inf) ([6]; oral administration, 20 mg/kg): 2071.6 ng·h/mL
- Cmax ([6]; oral administration, 20 mg/kg): 1905.0 ng/mL
- MRT ([6]; oral administration, 20 mg/kg): 3.0 h
- Tmax ([6]; oral administration, 20 mg/kg): 0.5 h
- t1/2 ([6]; oral administration, 20 mg/kg, from 2-6 hr (compd. 1), 2-24 hr (13a), 2-9 hr (14a)): 3.4 h
